Bridge positions count the residues as written; N and C are the ends. Ends that are not written are not given here. I, II: the chains in the order shown.
Experiments:
H1N1 virus [1] = type: cell-based, influenza H1N1 virus
rhinovirus A1 [2] = test: Anti-rhinovirus assay in cardiomyocytes (hIPSC-CMs); type: cell-based; conditions: 4H30 25 µg mL^−1; supernatants at 48 hpi; compared to DMEM- and P9RS-treated controls; Fig. 5d
Description: Cardiomyocytes are generated from human-induced pluripotent stem cells (iPSCs) as we had previously published ([22], [23]). Initially, IMR90 iPSCs are maintained in 12-well plates pre-coated with Matrigel (Thermo Fisher Scientific, USA) using StemFlex Medium (Thermo Fisher Scientific, USA). Subsequently, differentiation into cardiomyocytes is induced with the STEMdiff Ventricular Cardiomyocyte Differentiation Kit (Stem Cell Technologies, USA). This involves the sequential addition of Supplement A from days 1 to 2, Supplement B from days 3 to 4, and Supplement C from days 5 to 8 to cardiomyocyte differentiation basal medium. From day 9 onward, cardiomyocytes are sustained in cardiomyocyte maintenance basal medium with supplement (Stem Cell Technologies, USA). Lactate purification of cardiomyocytes is performed on days 11 to 12. Standard immunofluorescence staining with α-actinin and electrophysiology analysis by the patch clamping technique was performed to confirm their cardiomyocyte phenotype. To infect the cells, Rhinovirus A1 (0.025 TCID50) was treated with or without peptide in the media for infection. […]
Fig 5 4H30 inhibited rhinovirus replication in nasal organoids and cardiomyocytes. […] Viral RNAs were measured on day 1, day 2, and day 3 post-infection. […] Viral RNAs in the cell supernatants were measured by RT-qPCR at the indicated time points. […]

rhinovirus A1 [3] = type: cell-based
H1N1 virus [4] = test: Plaque reduction assay, H1N1 in MDCK cells; type: cell-based, influenza A/Hong Kong/415742/2009 (H1N1); conditions: virus treated with 4H30 50 µg mL^−1, then diluted to 0.05 µg mL^−1 for plaque assay, Fig. 1e
Method: (§1) The antiviral activity of peptides was measured by plaque reduction assay. Briefly, peptides were dissolved in PBS or 20% PBS. Peptides (0.2-25.0 µg mL^−1) were premixed with H1N1 virus at room temperature. After 30 min of incubation, the peptide-virus mixture was transferred to MDCK cells for infection at 37°C. At 1 hpi, infectious media were removed, and then 1% low melting agar was added to cells. Cells were fixed using 4% formalin at 2–3 dpi. […] (0.1%) was added to cells for cell staining to count viral plaques.

[5] = mouse, in vivo; cited from earlier work
H1N1 virus [6] = type: cell-based, influenza H1N1 virus; remark: listed apart in the source
rhinovirus A1 [7] = test: Rhinovirus A1 in H1-Hela cells; type: cell-based; conditions: 4H30 25 μg mL^−1, viral RNA copies in cells at 16 hpi, Fig. S6a
Method: (§2) Fig. S6. […] H1-Hela cells are the standard cell model for efficient Rhinovirus A16 (RV-A16) replication. RV-A1 (a) or RV-A16 (b) was treated with 4H30 (25 μg mL^−1) for one hour of infection and then the infectious media were replaced with MEM with 4H30 for viral culture. Viral RNA copies in cells were measured at 16 hpi. Virus in MEM was the control. No viral infection was the mock control. Data are presented as mean ± SD of indicated biological samples.

H3N2 virus = test: Plaque assay, H3N2 in MDCK cells; type: cell-based, influenza H3N2 virus; conditions: plaque number normalized to untreated virus, Fig. S2
Method: as §1
Fig. S2. The antiviral activity of 4H30 against H3N2 virus in MDCK cells. H3N2 virus was treated with the indicated concentrations of 4H30 to infect MDCK cells. The percentage (%) was the plaque number of virus treated with 4H30 normalized to virus without treatment (0).

Influenza HA = Influenza HA (Influenza A virus, UniProt C3W5S1); test: ELISA binding assay, HA; conditions: 4H30 1 µg coated, HA 100 ng, anti-His antibody, Fig. 2a
Chain of Influenza HA (C3W5S1 entry or part of it, added parts left off): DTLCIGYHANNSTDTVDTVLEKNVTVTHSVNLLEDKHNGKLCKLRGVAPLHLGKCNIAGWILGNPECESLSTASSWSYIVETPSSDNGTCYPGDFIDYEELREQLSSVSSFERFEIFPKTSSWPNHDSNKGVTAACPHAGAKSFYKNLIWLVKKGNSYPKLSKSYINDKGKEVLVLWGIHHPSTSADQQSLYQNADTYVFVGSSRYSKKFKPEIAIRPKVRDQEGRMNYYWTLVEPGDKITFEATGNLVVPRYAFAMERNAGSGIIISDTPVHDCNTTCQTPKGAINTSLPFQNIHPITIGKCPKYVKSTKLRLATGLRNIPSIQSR
Method: (§3) Peptides (1.0 µg per well) were dissolved in H2O. Influenza HA, NA (Sino, Cat^# 11058-V07B), or LDLR (Sino, Cat^# 10231-H081-50, 100 ng) dissolved in PBS was coated onto ELISA plates, incubated at 4°C overnight, and blocked with BSA at 4°C overnight. HA or VP1 was added to wells for binding and then determined by incubation with goat anti-His-HRP (Invitrogen, Cat^# R93125, 1: 2,000) at 37°C for 30 min. The reaction was developed by adding 100 µL of the TMB single solution (Life Technologies, Cat^# 002023) for 15 min at 37°C and stopped with 50 µL of 1 M H2SO4. Readings were obtained in an ELISA plate reader (Victor 1420 Multilabel Counter; PerkinElmer) at 450 nm.

rhinovirus A16 = test: Rhinovirus A16 in H1-Hela cells; type: cell-based; conditions: 4H30 25 μg mL^−1, viral RNA copies in cells at 16 hpi, Fig. S6b
Method: as §2

LDLR = molecular target: T1, LDLR (Homo sapiens, UniProt P01130); test: ELISA binding assay, LDLR; conditions: 4H30 1.0 µg, 0.25 µg and 0 µg, Fig. 4g
T1 construct: His; purchased Sino 10231-H081-50
T1 sequence (P01130 22-860): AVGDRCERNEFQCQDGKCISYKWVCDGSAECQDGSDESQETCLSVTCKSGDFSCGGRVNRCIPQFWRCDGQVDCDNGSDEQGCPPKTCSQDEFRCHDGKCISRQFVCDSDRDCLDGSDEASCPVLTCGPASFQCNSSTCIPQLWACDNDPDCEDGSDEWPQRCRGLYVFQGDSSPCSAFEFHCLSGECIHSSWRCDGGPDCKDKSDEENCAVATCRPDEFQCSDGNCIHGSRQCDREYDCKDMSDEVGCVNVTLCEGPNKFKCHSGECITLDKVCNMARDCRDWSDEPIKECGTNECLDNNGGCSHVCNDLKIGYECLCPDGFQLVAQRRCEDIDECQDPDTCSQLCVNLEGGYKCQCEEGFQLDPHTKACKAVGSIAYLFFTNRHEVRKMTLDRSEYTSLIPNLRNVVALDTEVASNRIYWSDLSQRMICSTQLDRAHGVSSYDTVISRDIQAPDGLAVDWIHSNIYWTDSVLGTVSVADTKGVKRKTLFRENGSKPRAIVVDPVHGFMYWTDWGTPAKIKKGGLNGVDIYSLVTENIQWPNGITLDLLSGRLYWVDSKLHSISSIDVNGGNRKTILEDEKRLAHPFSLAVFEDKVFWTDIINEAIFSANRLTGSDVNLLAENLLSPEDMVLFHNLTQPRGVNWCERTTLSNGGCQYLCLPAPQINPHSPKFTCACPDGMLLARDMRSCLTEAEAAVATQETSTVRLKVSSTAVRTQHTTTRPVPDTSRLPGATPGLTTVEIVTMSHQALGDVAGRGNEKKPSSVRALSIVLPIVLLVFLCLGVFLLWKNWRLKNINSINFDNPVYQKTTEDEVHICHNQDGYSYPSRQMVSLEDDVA
Method: as §3

H1N1 virus [8] = type: cell-based, influenza H1N1 virus; remark: listed apart in the source
[9] = test system: HA-mediated cell-cell fusion (pH7N7-HA); conditions: 125 µg mL^−1, 293T cells, pH 5.0, Fig. 2b
rhinovirus A1 [10] = type: cell-based; remark: listed apart in the source
NA = test: ELISA binding assay, NA; set-up: species or system influenza virus; conditions: 4H30 1 µg coated, NA 100 ng, anti-His antibody, Fig. 2a
Method: as §3

## I: GAICHPVFCPRRYKQIGTCGLPGTKCCKKPKK / II: GAICHPVFCPRRYKQIGTCGLPGTKCCKKPK / III: GAICHPVFCPRRYKQIGTCGLPGTKCCKKP / IV: GAICHPVFCPRRYKQIGTCGLPGTKCCKKP (amide I:31-IV:C, I:32-II:C, II:31-III:C; cysteines drawn unpaired) [4H30]
H1N1 virus [1]
  H1N1 viral release, supernatant virus at 8 hpi: significantly inhibited H1N1 viral release from cells
  H1N1 viral release, supernatant virus at 18 hpi: inhibited viral release at 18 hpi
  inhibition of viral release after removal of GAGs: removal of GAGs reduced the activity of 4H30 in inhibiting viral release
  viral HA on cell membrane, anti-HA staining at 18 hpi: more viral HA was detected on the cell membrane
Rhinovirus A1 [2]
  rhinovirus replication in hIPSC-CMs: significantly inhibited viral replication in hIPSC-CMs
Rhinovirus A1 [3]
  rhinovirus entry: blocked rhinovirus entry on the cell membrane
H1N1 virus [4]
  antiviral activity after treating virus and 1,000-fold dilution: displayed significant antiviral activity against the virus
[5]
  toxicity in mice: without causing apparent toxicity
H1N1 virus [6]
  H1N1 replication, cells treated before and after infection (1h-Pre, 1h-Post): did not show significant antiviral activity when cells were treated before and after viral infection
  H1N1 replication, virus treated before infection: inhibited viral replication when the virus was treated with 4H30 before viral infection
Rhinovirus A1 [7]
  inhibition of rhinovirus A1 in H1-Hela cells: inhibited rhinovirus A1 in H1-Hela cells
H3N2 virus
  inhibition of H3N2 virus infection: significantly inhibited group 2 influenza H3N2 virus infection
Influenza HA
  binding to HA protein: bound to HA protein
Rhinovirus A16
  inhibition of rhinovirus A16 in H1-Hela cells: did not show antiviral activity against rhinovirus A16
LDLR
  binding to LDLR: bound to the LDLR receptor of rhinovirus
H1N1 virus [8]
  H1N1 entry into cells: prevented viral entry into cells
[9]
  inhibition of HA-mediated cell-cell fusion induced by low pH: did not effectively block HA-mediated cell-cell fusion
Rhinovirus A1 [10]
  RV-A1 replication, cells (1h-Pre) or virus (Pre-mix) treated before infection: significantly inhibited viral replication when cells or viruses were treated with 4H30 before viral infection
  RV-A1 replication, cells treated after infection (1h-Post and 2h-Post): showed reduced antiviral activity when cells were treated after viral infection
  antiviral activity after treating rhinovirus and dilution: did not show antiviral activity against rhinovirus
  antiviral activity when added after virus attachment (4H30-Post): antiviral activity diminished when rhinovirus was attached to cells at 4 °C and was treated with 4H30 at 1 hpi
  antiviral activity when present during viral infection (4H30-Pre): showed significant antiviral activity when treating virus during viral infection
NA
  binding to NA: not effectively bound to NA

Reference: PMC12326976 (Antimicrobial Agents and Chemotherapy, 2025)
